Target: SARS-CoV-2 exonuclease complex (nsp14 and nsp10) (Severe acute respiratory syndrome coronavirus 2, UniProt P0DTD1)
Experiment: Exonuclease resistance of RNA terminated with nucleotide analogues, MALDI-TOF MS
Format: biochemical
Conditions: for cleavage of extended RNA after 5 min exonuclease treatment / cleavage of extended RNA after 30 min exonuclease treatment: RNA extended by SARS-CoV-2 RdRp (FIGS. 48, 49); for relative resistance to excision by the exonuclease: analogue at the 3′ terminus of RNA, compared with other 3′ termini

Substance | cleavage of extended RNA after 5 min exonuclease treatment | cleavage of extended RNA after 5 min exonuclease treatment (listed as SFV) | cleavage of extended RNA after 30 min exonuclease treatment | cleavage of extended RNA after 30 min exonuclease treatment (listed as SFV) | relative resistance to excision by the exonuclease | relative resistance to excision by the exonuclease (listed as 2′-O-Me-CTP)
Sofosbuvir | minimal appearance of cleavage products | some reduction in the height | significant amount of the intact Sofosbuvir-RNA remaining | still some SFV extended RNA remaining | more protected from cleavage | –
2′-O-methyl CMP | – | – | – | – | resistant to excision | much more full-length RNA remaining
UMP | substantial cleavage | – | completely disappears | – | – | –
